From patent US10512631B2, “Chalcone compounds” (Beth Israel Deaconess Medical Center, Inc., priority 2015, dated 2019)

Tests used:
Format in all cases: cell-based
[1] = tested on: A549; experiment: Cytoxicity / crystal violet staining, A549; settings: average of triplicates, % of apoptotic cells vs DMSO controls, N.A. = not active at 10 μM
Method: (§1) PC3 (provided by Dr. Steven Balk's laboratory in Department of Medicine at Beth Israel Deaconess Medical Center), PANC02 and CRL2119 (provided by Dr. Pankaja Seth's laboratory in Department of Medicine at Beth Israel Deaconess Medical Center), A549 (ATCC) cell lines were cultured according to manufacturer's protocols. Briefly, PC3 were cultured in RPMI medium supplemented with 10% FBS (Atlanta). PANC-2, A549 and CRL2119 were cultured in DMEM High medium supplemented with 10% FBS (Atlanta). Human bronchial epithelial cells (BEC) were cultured in Airway Epithelial Cell Basal Medium with the Bronchial Epithelial cell growth kit (ATCC) according to manufacturer's protocol and used at passages 3-5.
(§2) Cells were seeded at 5×10^3 concentration in 96 well plates and treated with test compounds or DMSO (0.001-10 μM) for 72 hours. Culture medium was removed and cells were stained with crystal violet solution (Sigma-Aldrich) for 15 minutes while shaking at room temperature. Crystal violet was then removed and cells were repeatedly washed in water. Attached cells stained with crystal violet were dried and then resuspended in 10% acetic acid. Absorbance was measured at 562 nm. The intensity of staining corresponded directly to the number of live cells.

[2] = tested on: PC3 (prostate cancer), A549 (lung cancer), CLR2119 and PAN02 (pancreatic cancer); experiment: Crystal violet staining, four cancer cell lines; settings: range over four cell lines, 72 hours, 0.01-10 μM; highest efficiency in PC3; read-out: IC50, survival of cancer cells
Method: as §1, §2

[3] = tested on: PC3 cells; experiment: Immunostaining of α-tubulin and β-actin in PC3 cells; settings: 24 hours
Method: Immunofluorescence and immunostaining on cell lines and tumor samples were performed as described in Wegiel et al, Cancer research 2013, 73(23), 7009-21. Anti-mouse STMN1, anti-P (Ser10)-Histone H3, and α-tubulin antibody were obtained from Cell Signaling. β-actin antibody was obtained from Sigma-Aldrich. […] After immunofluorescence staining, the number of P-Histone H3 was quantified per field of view at 40× magnification using Zeiss Axiovert Microscope.

[4] = tested on: STMN1; experiment: STMN1 immunostaining and immunoblotting in PC3 cells; settings: PC3 cells, 0.01, 0.1 and 1 μM; 30 minutes, 1 hour, 24 hours
Method: Immunofluorescence and immunostaining on cell lines and tumor samples were performed as described in Wegiel et al, Cancer research 2013, 73(23), 7009-21. Anti-mouse STMN1, anti-P (Ser10)-Histone H3, and α-tubulin antibody were obtained from Cell Signaling. β-actin antibody was obtained from Sigma-Aldrich. Cells were treated with Compound 6 (1 μM) or DMSO for 48 hours. After immunofluorescence staining, the number of P-Histone H3 was quantified per field of view at 40× magnification using Zeiss Axiovert Microscope.
Snap-frozen tissue samples were homogenized in ice-cold tissue lysis buffer (250 mM NaCl, 5 mM EDTA, 1% Triton X-100, 10 mM Tris-HCl; pH 7.5) containing the protease inhibitor cocktail Complete Mini (Roche). For co-immunoprecipitation, 200 μg protein lysates in RIPA buffer and the protease inhibitor cocktail were mixed with appropriate antibodies and 30 μl Protein A/G Plus-agarose beads (Santa Cruz Biotechnology) and then rotated for 1 hour at room temperature. The proteins were washed with RIPA buffer and eluted (95° C., 5 min in SDS loading buffer). Immunoblotting was performed as previously described in Chin et al., Proc. Natl. Acad. Sci. USA 2007, 104(12), 5109-14. Antibodies: P (Ser967)-ASK1 (Cell Signaling), Ask1 (Cell Signaling), P-STMN1 (Ser16) (Cell Signaling), STMN1 (Cell Signaling), 13-Actin (Sigma) were used at 1:1000 dilution.

[5] = tested on: A549; experiment: Cytoxicity / crystal violet staining, A549; settings: Homo sapiens, 0.01-5 μM for 72 hours, n=4
[6] = tested on: PC3; experiment: Cytoxicity / crystal violet staining, PC3; settings: Homo sapiens, PC-3; 0.01-5 μM for 72 hours, n=4

Cn1ccc2cc(/C=C3\CCc4ccc(F)cc4C3=O)ccc21 [Compound 6, (2E)-7-fluoro-2-[(1-methyl-1H-indol-5-yl)methylidene]-1,2,3,4-tetrahydronaphthalen-1-one]
Cytoxicity (% cell killing at 10 μM) A549 [1]: 47%
IC50 [2]: 140 to 300 nM
β-actin microfilament cytoskeleton ([3]; 1 μM): disintegrated β-actin microfilament cytoskeleton
microtubule stability (α-tubulin immunostaining) ([3]; Compound 6 1 μM or docetaxel 20 nM): suppressed mitotic spindle formation, as well as accumulation of α-tubulin and microtubules
STMN1 level by immunoblotting [4]: very early (30 minutes to 1 hour) stabilization of STMN1
IC50 [5]: 208 nM
IC50 [6]: 147 nM
